Experimental data reported in patent publication US4043759A (priority 1976, dated 1977).

Assay: Methotrexate concentration in patient serum as function of time after injection, by the radioassay
Format: in vivo
Description: The preparation of patient samples, such as patient serum and spinal fluid, is as follows:
1. Take 0.3 ml of fluid to be tested and add to 2.7 ml Buffer B to provide a 1:10 dilution.
2. Take 0.3 ml of 1:10 dilution and add to 2.7 ml of Buffer B to provide a 1:100 dilution.
3. Take 0.3 ml of 1:100 dilution and add to 2.7 ml Buffer B to provide a 1:1000 dilution.
4. Take 0.3 ml of 1:1000 dilution and add to 2.7 ml Buffer B to provide 1:10,000 dilution.
6. Centrifuge for 1 or 2 minutes at 2500 × g.
7. Decant supernate liquid into clean tubes.

For `CN(Cc1cnc2nc(N)nc(N)c2n1)c1ccc(C(=O)N[C@@H](CCC(=O)O)C(=O)O)cc1` [Methotrexate], the “Concentration of Methotrexate” value (after infusion) was 66000 ng/mL, the concentration at 24 h (human, 24 hours after injection) was 7200 ng/mL and the concentration at 48 h (human, 48 hours after injection) was 420 ng/mL. The concentration at 63 h (human, 63 hours after injection) was 290 ng/mL and the concentration at 72 h (human, 72 hours after injection) was 200 ng/mL.
